Consider 29 molecules from patent US10577363B2, “Substituted piperidine compounds” (EPIZYME, INC., priority 2014, dated 2020).

Assay [1] concerns the target T1, SMYD3 (Homo sapiens (Human), UniProt Q9H7B4). Put plainly: SMYD3 biochemical assay (SPA, 3H-SAM methylation of MEKK2 protein substrate). The conditions noted are these: read-out: SMYD3 Biochem IC50 (μM)*. The essentials:
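Enzyme: untagged full-length human SMYD3 from E. coli; substrate GST-tagged MEKK2 from insect cells. Buffer 25 mM Tris-Cl pH 8.0, 1 mM TCEP, 0.005% BSG/Tween 20. 30 min compound–enzyme preincubation at RT; 3H-SAM/MEKK2 start; stop with cold SAM (100 uM final); SPA readout in cpm.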

The target of assay [2] is T1, SMYD3. Briefly: SMYD3 cell assay (Trimethyl-MEKK2 In-Cell Western in 293T/17 cells). It is filed as cell-based. The note with it: read-out: SMYD3 Cell IC50 (μM)*. The essentials:
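In-Cell Western readout: methanol-fixed cells stained for trimethyl-MEKK2 and flag tag, ratio per well normalized to DMSO and background controls.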

T1 sequence (Q9H7B4 whole entry): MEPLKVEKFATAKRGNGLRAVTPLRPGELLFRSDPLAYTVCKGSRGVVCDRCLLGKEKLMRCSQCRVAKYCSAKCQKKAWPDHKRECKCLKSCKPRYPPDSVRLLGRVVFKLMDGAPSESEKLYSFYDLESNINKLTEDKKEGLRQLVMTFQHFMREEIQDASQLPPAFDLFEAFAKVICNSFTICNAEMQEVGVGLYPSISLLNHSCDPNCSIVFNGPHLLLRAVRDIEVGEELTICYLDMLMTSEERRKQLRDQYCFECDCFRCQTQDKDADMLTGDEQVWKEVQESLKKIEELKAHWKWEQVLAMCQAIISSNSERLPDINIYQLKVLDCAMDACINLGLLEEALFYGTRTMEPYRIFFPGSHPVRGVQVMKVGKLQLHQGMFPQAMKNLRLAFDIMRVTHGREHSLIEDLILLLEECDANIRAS

Take `N[C@H]1CC[C@H](C(=O)N2CC3CCC2CC3NC(=O)c2cc(C3CC3)on2)CC1` (stereo partly shown) [compound 88, N-(2-((1r,4r)-4-aminocyclohexane-1-carbonyl)-2-azabicyclo[2.2.2]octan-5-yl)-5-cyclopropylisoxazole-3-carboxamide]: the IC50 was found to be 0.156 µM at SMYD3 [1] and 2.5 µM on SMYD3 [2].
The corresponding values for `CC(C)C1CC(NC(=O)c2cc(C3CC3)on2)CCN1C(=O)[C@H]1CC[C@H](N)CC1` (stereo partly shown) [compound 99, N-(1-((1r,4r)-4-aminocyclohexane-1-carbonyl)-2-isopropylpiperidin-4-yl)-5-cyclopropylisoxazole-3-carboxamide] are 0.23 µM and 3.05 µM.
The corresponding values for `N[C@H]1CC[C@H](C(=O)N2[C@@H]3CC[C@H]2C[C@@H](NC(=O)c2cc(C4CC4)on2)C3)CC1` [compound 102, N-((1R,3R,5S)-8-((1r,4R)-4-aminocyclohexane-1-carbonyl)-8-azabicyclo[3.2.1]octan-3-yl)-5-cyclopropylisoxazole-3-carboxamide] are 0.106 µM and 1.7 µM.
The corresponding values for `O=C(NC1CCN(C(=O)CC2CCNCC2)C(Cc2ccccc2)C1)c1cc(C2CC2)on1` (stereo not shown) [compound 109, N-(2-benzyl-1-(2-(piperidin-4-yl)acetyl)piperidin-4-yl)-5-cyclopropylisoxazole-3-carboxamide] are 0.0968 µM and 1.93 µM.
For `CC[C@@H]1CC(NC(=O)c2cc(C3CC3)on2)CCN1C(=O)[C@H]1CC[C@H](N)CC1` (stereo partly drawn) [compound 110, N-((2R)-1-((1r,4R)-4-aminocyclohexane-1-carbonyl)-2-ethylpiperidin-4-yl)-5-cyclopropylisoxazole-3-carboxamide], the IC50 on SMYD3 [1] stood at 0.0994 µM; on SMYD3 [2] it was 0.893 µM.
The corresponding values for `C[C@@H]1CC(NC(=O)c2cc(C3CC3)on2)CCN1C(=O)[C@H]1CC[C@H](N)CO1` (stereo partly drawn) [compound 118, N-((2R)-1-((2R,5S)-5-aminotetrahydro-2H-pyran-2-carbonyl)-2-methylpiperidin-4-yl)-5-cyclopropylisoxazole-3-carboxamide] are 0.208 µM and 1.35 µM.
The corresponding values for `CN[C@H]1CC[C@H](C(=O)N2CCC(NC(=O)c3cc(C4CC4)on3)C[C@H]2C)CC1` (stereo partly drawn) [compound 124, 5-cyclopropyl-N-((2R)-2-methyl-1-((1r,4R)-4-(methylamino)cyclohexane-1-carbonyl)piperidin-4-yl)isoxazole-3-carboxamide] are 0.274 µM and 2.24 µM.
Regarding `C[C@@H]1CN(C(=O)[C@H]2CC[C@H](N)CC2)CC[C@@H]1NC(=O)c1cc(C2CC2)on1` [compound 148, N-((3R,4S)-1-((1r,4R)-4-aminocyclohexane-1-carbonyl)-3-methylpiperidin-4-yl)-5-cyclopropylisoxazole-3-carboxamide], the 50% inhibitory concentration (IC50) on SMYD3 [1] came out at 0.282 µM; on SMYD3 [2], 1.81 µM.
The corresponding values for `C[C@@H]1CN(C(=O)CC2CCNCC2)CC[C@@H]1NC(=O)c1cc(C2CC2)on1` [compound 149, 5-cyclopropyl-N-((3R,4S)-3-methyl-1-(2-(piperidin-4-yl)acetyl)piperidin-4-yl)isoxazole-3-carboxamide] are 0.291 µM and 3.22 µM.
The corresponding values for `NC1CCC(C(=O)N2CCC(NC(=O)c3cc(C4CC4)on3)C3(CC3)C2)CC1` (stereo not shown) [compound 156, N-(5-((1r,4r)-4-aminocyclohexane-1-carbonyl)-5-azaspiro[2.5]octan-8-yl)-5-cyclopropylisoxazole-3-carboxamide] are 0.245 µM and 1.76 µM.
The corresponding values for `C[C@@H]1CC(NC(=O)c2cc(C3CC3)on2)CCN1C(=O)C1CC2(CC(N)C2)C1` (stereo partly drawn) [compound 175, N-((2R)-1-(6-aminospiro[3.3]heptane-2-carbonyl)-2-methylpiperidin-4-yl)-5-cyclopropylisoxazole-3-carboxamide] are 0.274 µM and 0.983 µM.
As for `C[C@H]1C[C@@H](NC(=O)c2cc(C3CC3)on2)CCN1S(=O)(=O)CCCN` [compound 187], the IC50 is 0.00409 µM at SMYD3 [1] and 0.831 µM at SMYD3 [2].
The corresponding values for `C[C@@H]1C[C@H](NC(=O)c2cc(C3CC3)on2)CCN1S(=O)(=O)CCCN` [compound 189, N-((2R,4R)-1-((3-aminopropyl)sulfonyl)-2-methylpiperidin-4-yl)-5-cyclopropylisoxazole-3-carboxamide] are 0.0559 µM and 1.24 µM.
The corresponding values for `C[C@@H]1CC(NC(=O)c2cc(C3CC3)on2)CCN1C(=O)C12C3C4C1C1C2C3C41N` (stereo partly drawn) [compound 202, N-((2R)-1-(4-aminocubane-1-carbonyl)-2-methylpiperidin-4-yl)-5-cyclopropylisoxazole-3-carboxamide] are 0.142 µM and 1.31 µM.
`NCCCS(=O)(=O)N1CCC(NC(=O)c2cc(C3CC3)on2)CC1` [compound 210, N-(1-((3-aminopropyl)sulfonyl)piperidin-4-yl)-5-cyclopropylisoxazole-3-carboxamide]: the results for the concentration for half-maximal inhibition (IC50) on SMYD3 [1] and at SMYD3 [2] were 0.321 µM and 2.9 µM, respectively.
The corresponding values for `CC1(NC(=O)c2cc(C3CC3)on2)CCN(S(=O)(=O)CCCN)CC1` [compound 218, N-(1-((3-aminopropyl)sulfonyl)-4-methylpiperidin-4-yl)-5-cyclopropylisoxazole-3-carboxamide] are 0.23 µM and 1.42 µM.
On to `CC1CC(NC(=O)c2cc(C3CC3)on2)CCN1C(=O)Cc1c[nH]cn1` (stereo not shown) [compound 227, N-(1-(2-(1H-imidazol-4-yl)acetyl)-2-methylpiperidin-4-yl)-5-cyclopropylisoxazole-3-carboxamide], for which the IC50 on SMYD3 [1] was > 10 µM; at SMYD3 [2] it was > 40 µM.
The corresponding values for `C[C@H]1C[C@@H](NC(=O)c2cc(C3CC3)on2)CCN1S(=O)(=O)CCc1ccccc1` [compound 235, 5-cyclopropyl-N-((2S,4S)-2-methyl-1-(phenethylsulfonyl)piperidin-4-yl)isoxazole-3-carboxamide] are 1.33 µM and 3.3 µM.
The corresponding values for `C[C@H]1C[C@H](NC(=O)c2cc(C3CC3)on2)CCN1S(=O)(=O)Cc1ccccc1` [compound 244, N-((2S,4R)-1-(benzylsulfonyl)-2-methylpiperidin-4-yl)-5-cyclopropylisoxazole-3-carboxamide] are > 10 µM and 14.1 µM.
On to `CC1CN(C(=O)[C@H]2CC[C@H](N)CC2)C(C)CC1NC(=O)c1cc(C2CC2)on1` (stereo partly shown) [compound 263, N-(1-((1r,4r)-4-aminocyclohexane-1-carbonyl)-2,5-dimethylpiperidin-4-yl)-5-cyclopropylisoxazole-3-carboxamide], for which the IC50 on SMYD3 [1] was 0.0322 µM; on SMYD3 [2] (293T/17 cells), 0.569 µM.
The corresponding values for `NCCCC(=O)N1CC2CCC1CC2NC(=O)c1cc(C2CC2)on1` (stereo not shown) [compound 265, N-(2-(4-aminobutanoyl)-2-azabicyclo[2.2.2]octan-5-yl)-5-cyclopropylisoxazole-3-carboxamide] are 5.45 µM and > 40 µM.
The corresponding values for `C[C@H]1C[C@@H](NC(=O)c2cc(C3CC3)on2)CCN1C(=O)CC(CN)Cc1ccccc1` (stereo partly drawn) [compound 269, N-((2S,4S)-1-(4-amino-3-benzylbutanoyl)-2-methylpiperidin-4-yl)-5-cyclopropylisoxazole-3-carboxamide] are > 10 µM and > 40 µM.
The corresponding values for `C[C@@H]1C[C@@H](NC(=O)c2cc(C3CC3)on2)CCN1C(=O)CC(CN)Cc1ccccc1` (stereo partly drawn) [compound 270, N-((2R,4S)-1-(4-amino-3-benzylbutanoyl)-2-methylpiperidin-4-yl)-5-cyclopropylisoxazole-3-carboxamide] are > 10 µM and > 40 µM.
As to `C[C@H]1C[C@H](NC(=O)c2cc(C3CC3)on2)CCN1C(=O)CC(CN)Cc1ccccc1` (stereo partly drawn) [compound 271, N-((2S,4R)-1-(4-amino-3-benzylbutanoyl)-2-methylpiperidin-4-yl)-5-cyclopropylisoxazole-3-carboxamide], the figures for the IC50 at SMYD3 [1] and at SMYD3 [2] (293T/17 cells) were > 10 µM and > 40 µM, respectively.
The corresponding values for `C[C@@H]1C[C@H](NC(=O)c2cc(C3CC3)on2)CCN1C(=O)CC(CN)Cc1ccccc1` (stereo partly drawn) [compound 272, N-((2R,4R)-1-(4-amino-3-benzylbutanoyl)-2-methylpiperidin-4-yl)-5-cyclopropylisoxazole-3-carboxamide] are > 10 µM and > 40 µM.
The corresponding values for `C[C@H]1C[C@@H](NC(=O)c2cc(C3CC3)on2)CCN1S(=O)(=O)Cc1ccccc1` [compound 274, N-((2S,4S)-1-(benzylsulfonyl)-2-methylpiperidin-4-yl)-5-cyclopropylisoxazole-3-carboxamide] are 0.433 µM and 1.42 µM.
The corresponding values for `C[C@H]1C[C@@H](NC(=O)c2cc(C3CC3)on2)CCN1S(=O)(=O)c1ccccn1` [compound 275, 5-cyclopropyl-N-((2S,4S)-2-methyl-1-(pyridin-2-ylsulfonyl)piperidin-4-yl)isoxazole-3-carboxamide] are 0.154 µM and 0.676 µM.
For the molecule `C[C@@H]1C[C@@H](NC(=O)c2cc(C3CC3)on2)CCN1S(=O)(=O)c1cn(C)cn1` [compound 283, 5-cyclopropyl-N-((2R,4S)-2-methyl-1-((1-methyl-1H-imidazol-4-yl)sulfonyl)piperidin-4-yl)isoxazole-3-carboxamide], the IC50 was > 10 µM on SMYD3 [1] and > 40 µM on SMYD3 [2] (293T/17 cells).
The corresponding values for `C[C@H]1C[C@H](NC(=O)c2cc(C3CC3)on2)CCN1S(=O)(=O)c1ccccn1` [compound 286, 5-cyclopropyl-N-((2S,4R)-2-methyl-1-(pyridin-2-ylsulfonyl)piperidin-4-yl)isoxazole-3-carboxamide] are > 10 µM and 10.7 µM.
